The values below come from US9943504B2, “Arginine methyltransferase inhibitors and uses thereof” (Epizyme, Inc., priority 2013, dated 2018).

In this experiment the test system is mono-methyl arginine in RKO cells. The experiment in a line: RKO Methylation Assay (In Cell Western). The class given is cell-based. The conditions noted are these: 72 hours, percent activation. The source says:
RKO adherent cells were purchased from ATCC (American Type Culture Collection), Manassas, Va., USA. DMEM/Glutamax medium, penicillin-streptomycin, heat inactivated fetal bovine serum, 0.05% trypsin and D-PBS were purchased from Life Technologies, Grand Island, N.Y., USA. Odyssey blocking buffer, 800CW goat anti-rabbit IgG (H+L) antibody, and Licor Odyssey infrared scanner were purchased from Licor Biosciences, Lincoln, Nebr., USA. Mono-methyl arginine antibody was purchased from Cell Signaling Technology, Danvers, Mass., USA. Methanol was purchased from VWR, Franklin, Mass., USA. 10% Tween 20 was purchased from KPL, Inc., Gaithersburg, Md., USA. DRAQ5 was purchased from Biostatus Limited, Leicestershire, UK.
RKO adherent cells were maintained in growth medium (DMEM/Glutamax medium supplemented with 10% v/v heat inactivated fetal bovine serum and 100 units/mL penicillin-streptomycin) and cultured at 37° C. under 5% CO2.
Cell Treatment, in Cell Western (ICW) for Detection of Mono-Methyl Arginine and DNA Content.
RKO cells were seeded in assay medium at a concentration of 20,000 cells per mL to a poly-D-lysine coated 384 well culture plate (BD Biosciences 356697) with 50 μL per well. Compound (100 nL) from a 96-well source plate was added directly to 384 well cell plate. Plates were incubated at 37° C., 5% CO2 for 72 hours. After three days of incubation, plates were brought to room temperature outside of the incubator for ten minutes and blotted on paper towels to remove cell media. 50 μL of ice cold 100% methanol was added directly to each well and incubated for 30 min at room temperature. After 30 min, plates were transferred to a Biotek EL406 plate washer and washed 2 times with 100 μL per well of wash buffer (1×PBS). Next 60 μL per well of Odyssey blocking buffer (Odyssey Buffer with 0.1% Tween 20 (v/v)) were added to each plate and incubated 1 hour at room temperature. Blocking buffer was removed and 20 μL per well of primary antibody was added (mono-methyl arginine diluted 1:200 in Odyssey buffer with 0.1% Tween 20 (v/v)) and plates were incubated overnight (16 hours) at 4° C. Plates were washed 5 times with 100 μL per well of wash buffer. Next 20 μL per well of secondary antibody was added (1:200 800CW goat anti-rabbit IgG (H+L) antibody, 1:1000 DRAQ5 (Biostatus limited) in Odyssey buffer with 0.1% Tween 20 (v/v)) and incubated for 1 hour at room temperature. The plates were washed 5 times with 100 μL per well wash buffer then 2 times with 100 μL per well of water. Plates were allowed to dry at room temperature then imaged on the Licor Odyssey machine which measures integrated intensity at 700 nm and 800 nm wavelengths. Both 700 and 800 channels were scanned.
First, the ratio for each well was determined by:
Each plate included fourteen control wells of DMSO only treatment (minimum activation) as well as fourteen control wells for maximum activation treated with 20 μM of a reference compound. The average of the ratio values for each control type was calculated and used to determine the percent activation for each test well in the plate. Reference compound was serially diluted three-fold in DMSO for a total of nine test concentrations, beginning at 20 μM. Percent activation was determined and EC30 curves were generated using triplicate wells per concentration of compound.

Molecules are shown by their SMILES.

Regarding `CC(C)COc1ccc2[nH]nc(CN(C)CCN)c2c1` [Compound 2, N^1-((5-iso-butoxy-1H-indazol-3-yl)methyl)-N^1-methylethane-1,2-diamine], the “RGG ICW EC30” value is reported as “B (“B” indicates an EC30 of 3.01-12.00 μM)”. Under `CNCCN(C)Cc1nn(C)c2ccc(OCC(C)C)cc12` [Compound 3, N^1-((5-iso-butoxy-1-methyl-1H-indazol-3-yl)methyl)-N^1,N^2-dimethylethane-1,2-diamine] stands “C (“C” indicates an EC30 ≥ 12.01 μM)”. Regarding `CNCCN(C)Cc1n[nH]c2ccc(OC(C)C(C)C)cc12` (centres unmarked) [Compound 4], the “RGG ICW EC30” value is given as “A (“A” indicates an EC30 ≤ 3.00 μM)”. Regarding `CNCCN(C)Cc1n[nH]c2ccc(OCCOC)cc12` [Compound 5, N^1-((5-(2-methoxyethoxy)-1H-indazol-3-yl)methyl)-N^1,N^2-dimethylethane-1,2-diamine], the “RGG ICW EC30” value was “B (“B” indicates an EC30 of 3.01-12.00 μM)”. Next, `CNCCN(C)Cc1n[nH]c2ccc(OCCCOC)cc12` [Compound 6]: “A (“A” indicates an EC30 ≤ 3.00 μM)”; `CNCCN(C)Cc1n[nH]c2ccc(OCCc3ccccc3)cc12` [Compound 7]: “A (“A” indicates an EC30 ≤ 3.00 μM)”; `CNCCN(C)Cc1n[nH]c2ccc(OCCC(C)C)cc12` [Compound 8]: “A (“A” indicates an EC30 ≤ 3.00 μM)”. Next, `CNCCN(C)Cc1n[nH]c2ccc(OC(C)Cc3ccccc3)cc12` (centres unmarked) [Compound 9]: “B (“B” indicates an EC30 of 3.01-12.00 μM)”; `CNCCN(C)Cc1n[nH]c2ccc(Oc3ccccc3)cc12` [Compound 10, N^1,N^2-dimethyl-N^1-((5-phenoxy-1H-indazol-3-yl)methyl)ethane-1,2-diamine]: “B (“B” indicates an EC30 of 3.01-12.00 μM)”; `CNCCN(C)Cc1n[nH]c2ccc(OC3CCCC3)cc12` [Compound 11]: “A (“A” indicates an EC30 ≤ 3.00 μM)”. Next, `CNCCN(C)Cc1n[nH]c2ccc(OCc3ccccn3)cc12` [Compound 12]: “B (“B” indicates an EC30 of 3.01-12.00 μM)”; `CNCCN(C)Cc1n[nH]c2ccc(OCc3ccc(C#N)cc3)cc12` [Compound 13]: “B (“B” indicates an EC30 of 3.01-12.00 μM)”; `CNCCN(C)Cc1n[nH]c2ccc(OCc3cccc(C#N)c3)cc12` [Compound 14]: “B (“B” indicates an EC30 of 3.01-12.00 μM)”. `CNCCN(C)Cc1n[nH]c2ccc(OCc3cc[nH]n3)cc12` [Compound 17]: the “RGG ICW EC30” value is “C (“C” indicates an EC30 ≥ 12.01 μM)”.
